According to patent publication US7959743B2, “Lithium salts of fatty alcohol sulphates for cleaning boreholes, boring devices and borings” (priority 2004, dated 2011):

Test system: Corophium volutator
Conditions: in vivo

Substance	Corophium volutator 10 d, LC 50
C8-10 alkyl-1,5-glucoside [V4]	None after 433 mg/kg
Soya polyol ethoxylate [V3]	1888 mg/kg
